pIC50: −log10 of the molar value.
Biological target: T1, MAGL (Homo sapiens, UniProt Q99685)
T1 sequence (Q99685 1-303): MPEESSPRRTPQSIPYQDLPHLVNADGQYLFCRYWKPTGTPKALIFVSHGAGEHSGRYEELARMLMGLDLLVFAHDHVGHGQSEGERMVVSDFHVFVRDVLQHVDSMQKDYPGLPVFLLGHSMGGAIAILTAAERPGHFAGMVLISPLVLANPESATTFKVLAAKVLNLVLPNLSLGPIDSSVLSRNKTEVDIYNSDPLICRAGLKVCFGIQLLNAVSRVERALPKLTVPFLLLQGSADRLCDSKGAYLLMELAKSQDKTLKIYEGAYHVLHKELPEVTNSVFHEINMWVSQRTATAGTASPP
Assay: 2-AG assay (MAGL inhibitory activity, hydrolysis of 2-arachidonoylglycerol followed by mass spectrometry)
Format: biochemical
Settings: 50 pM MAGL, 8 μM 2-arachidonoylglycerol, 15 min pre-incubation, 30 min incubation at RT
Experimental: Compounds were profiled for MAGL inhibitory activity by determining the enzymatic activity by following the hydrolysis of the natural substrate 2-arachidonoylglycerol resulting in arachidonic acid, which can be followed by mass spectrometry. This assay is hereinafter abbreviated “2-AG assay”.
The 2-AG assay was carried out in 384 well assay plates (PP, Greiner Cat# 784201) in a total volume of 20 μL. Compound dilutions were made in 100% DMSO (VWR Chemicals 23500.297) in a polypropylene plate in 3-fold dilution steps to give a final concentration range in the assay from 12.5 μM to 0.8 pM. 0.25 μL compound dilutions (100% DMSO) were added to 9 μL MAGL in assay buffer (50 mM TRIS (GIBCO, 15567-027), 1 mM EDTA (Fluka, 03690-100 ml), 0.01% (v/v) Tween. After shaking, the plate was incubated for 15 min at RT. To start the reaction, 10 μL 2-arachidonoylglycerol in assay buffer was added. The final concentrations in the assay was 50 pM MAGL and 8 μM 2-arachidonoylglyerol. After shaking and 30 min incubation at RT, the reaction was quenched by the addition of 40 μL of acetonitrile containing 4 μM of d8-arachidonic acid. The amount of arachidonic acid was traced by an online SPE system (Agilent Rapidfire) coupled to a triple quadrupole mass spectrometer (Agilent 6460). A C18 SPE cartridge (G9205A) was used in an acetonitrile/water liquid setup. The mass spectrometer was operated in negative electrospray mode following the mass transitions 303.1→259.1 for arachidonic acid and 311.1→267.0 for d8-arachidonic acid. The activity of the compounds was calculated based on the ratio of intensities [arachidonic acid/d8-arachidonic acid].

Structure (SMILES)	pIC50
O=C1CO[C@H]2CCN(C(=O)N3C[C@H]4C[C@@H]3C[C@@H]4OCc3cc4c(cn3)CCCC4)C[C@H]2N1 (relative stereo) [Example 9, (4aR,8aS)-6-[rel-(1R,4R,5S)-5-(5,6,7,8-tetrahydroisoquinolin-3-ylmethoxy)-2-azabicyclo[2.2.1]heptane-2-carbonyl]-4,4a,5,7,8,8a-hexahydropyrido[4,3-b][1,4]oxazin-3-one]	7.12
O=C1CO[C@H]2CCN(C(=O)N3C[C@@H]4C[C@H](OCc5ccc(C(F)(F)F)cc5F)[C@H]3C4)C[C@H]2N1 (relative stereo) [Example 18, (4aR,8aS)-6-[rel-(1R,4S,6S)-6-[[2-fluoro-4-(trifluoromethyl)phenyl]methoxy]-2-azabicyclo[2.2.1]heptane-2-carbonyl]-4,4a,5,7,8,8a-hexahydropyrido[4,3-b][1,4]oxazin-3-one]	5.98
O=C1CO[C@H]2CCN(C(=O)N3C[C@H]4C[C@@H]3[C@H](OCc3ccc(C(F)(F)F)cc3F)C4)C[C@H]2N1 (relative stereo) [Example 19, (4aR,8aS)-6-[rel-(1R,4S,6R)-6-[[2-fluoro-4-(trifluoromethyl)phenyl]methoxy]-2-azabicyclo[2.2.1]heptane-2-carbonyl]-4,4a,5,7,8,8a-hexahydropyrido[4,3-b][1,4]oxazin-3-one]	5.94
O=C1CO[C@H]2CCN(C(=O)N3CC4CN(S(=O)(=O)c5ccccc5)CC4C3)C[C@H]2N1 (stereo partly drawn) [Example 3, (4aR,8aS)-6-(5-(benzenesulfonyl)-1,3,3a,4,6,6a-hexahydropyrrolo[3,4-c]pyrrole-2-carbonyl)-4,4a,5,7,8,8a-hexahydropyrido[4,3-b][1,4]oxazin-3-one]	5.64
O=C1CO[C@H]2CCN(C(=O)N3CC4CN(S(=O)(=O)c5ccc(C(F)(F)F)cc5)CC4C3)C[C@H]2N1 (stereo partly drawn) [Example 4, (4aR,8aS)-6-(5-[4-(trifluoromethyl)phenyl]sulfonyl-1,3,3a,4,6,6a-hexahydropyrrolo[3,4-c]pyrrole-2-carbonyl)-4,4a,5,7,8,8a-hexahydropyrido[4,3-b][1,4]oxazin-3-one]	6.03
O=C1CO[C@H]2CCN(C(=O)N3CC4CN(S(=O)(=O)c5ccc(F)cc5Cl)CC4C3)C[C@H]2N1 (stereo partly drawn) [Example 5, (4aR,8aS)-6-(5-(2-chloro-4-fluoro-phenyl)sulfonyl-1,3,3a,4,6,6a-hexahydropyrrolo[3,4-c]pyrrole-2-carbonyl)-4,4a,5,7,8,8a-hexahydropyrido[4,3-b][1,4]oxazin-3-one]	6.17
O=C1CO[C@H]2CCN(C(=O)N3C[C@@H]4[C@H](C3)[C@H]4c3ccn(-c4ccc(F)cc4)n3)C[C@H]2N1 [Example 6, (4aR,8aS)-6-[(1R,5S,6r)-6-[1-(4-fluorophenyl)pyrazol-3-yl]-3-azabicyclo[3.1.0]hexane-3-carbonyl]-4,4a,5,7,8,8a-hexahydropyrido[4,3-b][l,4]oxazin-3-one]	6.58
O=C1CO[C@H]2CCN(C(=O)N3C[C@@H]4[C@H](C3)[C@H]4c3ccn(-c4ccc(F)c(C(F)(F)F)c4)n3)C[C@H]2N1 [Example 7, (4aR,8aS)-6-[(1R,5S,6r)-6-[1-[4-fluoro-3-(trifluoromethyl)phenyl]pyrazol-3-yl]-3-azabicyclo[3.1.0]hexane-3-carbonyl]-4,4a,5,7,8,8a-hexahydropyrido[4,3-b][1,4]oxazin-3-one]	7.34
O=C1CO[C@H]2CCN(C(=O)N3C[C@@H]4[C@H](C3)[C@H]4c3ccn(-c4ccc(F)cc4Cl)n3)C[C@H]2N1 [Example 8, (4aR,8aS)-6-[(1R,5S,6r)-6-[1-(2-chloro-4-fluoro-phenyl)pyrazol-3-yl]-3-azabicyclo[3.1.0]hexane-3-carbonyl]-4,4a,5,7,8,8a-hexahydropyrido[4,3-b][1,4]oxazin-3-one]	6.95
O=C1CO[C@H]2CCN(C(=O)N3CC4CC(OCc5ccc(C(F)(F)F)cc5F)CC4C3)C[C@H]2N1 (stereo partly drawn) [Example 16, (4aR,8aS)-6-[5-[[2-fluoro-4-(trifluoromethyl)phenyl]methoxy]-3,3a,4,5,6,6a-hexahydro-1H-cyclopenta[c]pyrrole-2-carbonyl]-4,4a,5,7,8,8a-hexahydropyrido[4,3-b][1,4]oxazin-3-one]	7.07
O=C1CO[C@H]2CCN(C(=O)N3CC4CC(C3)C4OCc3ccc(C(F)(F)F)cc3F)C[C@H]2N1 (stereo partly drawn) [Example 22, (4aR,8aS)-6-[6-[[2-fluoro-4-(trifluoromethyl)phenyl]methoxy]-3-azabicyclo[3.1.1]heptane-3-carbonyl]-4,4a,5,7,8,8a-hexahydropyrido[4,3-b][1,4]oxazin-3-one]	6.66
O=C1CO[C@H]2CCN(C(=O)N3[C@@H]4COC[C@H]3C[C@@H](OCc3ccc(C(F)(F)F)cc3F)C4)C[C@H]2N1 [Example 23, (4aR,8aS)-6-[(1S,5R)-7-[[2-fluoro-4-(trifluoromethyl)phenyl]methoxy]-3-oxa-9-azabicyclo[3.3.1]nonane-9-carbonyl]-4,4a,5,7,8,8a-hexahydropyrido[4,3-b][1,4]oxazin-3-one]	6.20
O=C1CO[C@H]2CCN(C(=O)N3[C@@H]4CC[C@H]3C[C@H](OCc3ccc(C(F)(F)F)cc3F)C4)C[C@H]2N1 [Example 24, (4aR,8aS)-6-[(1S,5R)-3-[[2-fluoro-4-(trifluoromethyl)phenyl]methoxy]-8-azabicyclo[3.2.1]octane-8-carbonyl]-4,4a,5,7,8,8a-hexahydropyrido[4,3-b][1,4]oxazin-3-one]	8.85
O=C1CO[C@H]2CCN(C(=O)N3C[C@@H]4[C@@H](COc5ccc(C(F)(F)F)cc5F)[C@@H]4C3)C[C@H]2N1 [Example 25, (4aR,8aS)-6-[(1R,5S,6r)-6-[[2-fluoro-4-(trifluoromethyl)phenoxy]methyl]-3-azabicyclo[3.1.0]hexane-3-carbonyl]-4,4a,5,7,8,8a-hexahydropyrido[4,3-b][1,4]oxazin-3-one]	7.49

Now from value to compound:

pIC50	Structure (SMILES)
8.05	O=C1CO[C@H]2CCN(C(=O)N3CC4CC(Oc5ccccc5Cl)CC4C3)C[C@H]2N1 (stereo partly drawn) [Example 1, (4aR,8aS)-6-(5-(2-chlorophenoxy)-3,3a,4,5,6,6a-hexahydro-1H-cyclopenta[c]pyrrole-2-carbonyl)-4,4a,5,7,8,8a-hexahydropyrido[4,3-b][1,4]oxazin-3-one]
7.70	Cc1ccccc1OC1CC2CN(C(=O)N3CC[C@@H]4OCC(=O)N[C@@H]4C3)CC2C1 (stereo partly drawn) [Example 2, (4aR,8aS)-6-(5-(2-methylphenoxy)-3,3a,4,5,6,6a-hexahydro-1H-cyclopenta[c]pyrrole-2-carbonyl)-4,4a,5,7,8,8a-hexahydropyrido[4,3-b][1,4]oxazin-3-one]
8.20	O=C1CO[C@H]2CCN(C(=O)N3C[C@@H]4[C@@H](COc5ccc(F)cc5Cl)[C@@H]4C3)C[C@H]2N1 [Example 12, (4aR,8aS)-6-[(1R,5S,6r)-6-[(2-chloro-4-fluoro-phenoxy)methyl]-3-azabicyclo[3.1.0]hexane-3-carbonyl]-4,4a,5,7,8,8a-hexahydropyrido[4,3-b][1,4]oxazin-3-one]
8.29	O=C1CO[C@H]2CCN(C(=O)N3CC4CCC(C3)C4COc3ccc(F)cc3Cl)C[C@H]2N1 (stereo partly drawn) [Example 13, (4aR,8aS)-6-[8-[(2-chloro-4-fluoro-phenoxy)methyl]-3-azabicyclo[3.2.1]octane-3-carbonyl]-4,4a,5,7,8,8a-hexahydropyrido[4,3-b][1,4]oxazin-3-one]
8.46	O=C1CO[C@H]2CCN(C(=O)N3CC4CC(Oc5ccc(F)cc5Cl)CC4C3)C[C@H]2N1 (stereo partly drawn) [Example 14, (4aR,8aS)-6-[5-(2-chloro-4-fluoro-phenoxy)-3,3a,4,5,6,6a-hexahydro-1H-cyclopenta[c]pyrrole-2-carbonyl]-4,4a,5,7,8,8a-hexahydropyrido[4,3-b][1,4]oxazin-3-one]
7.96	O=C1CO[C@H]2CCN(C(=O)N3CC4CC(OCc5ccc(F)cc5Cl)CC4C3)C[C@H]2N1 (stereo partly drawn) [Example 15, (4aR,8aS)-6-[5-[(2-chloro-4-fluoro-phenyl)methoxy]-3,3a,4,5,6,6a-hexahydro-1H-cyclopenta[c]pyrrole-2-carbonyl]-4,4a,5,7,8,8a-hexahydropyrido[4,3-b][1,4]oxazin-3-one]
8.33	O=C1CO[C@H]2CCN(C(=O)N3CC4CC(Oc5ccc(C(F)(F)F)cc5F)CC4C3)C[C@H]2N1 (stereo partly drawn) [Example 17, (4aR,8aS)-6-[5-[2-fluoro-4-(trifluoromethyl)phenoxy]-3,3a,4,5,6,6a-hexahydro-1H-cyclopenta[c]pyrrole-2-carbonyl]-4,4a,5,7,8,8a-hexahydropyrido[4,3-b][1,4]oxazin-3-one]

From patent US20210094971A1, “HETEROCYCLIC COMPOUNDS” (Hoffmann-La Roche Inc., priority 2019, published 2021)
